Patent US6897209B2, “Labelled factor XIIIa substrates” (GE Healthcare Limited, priority 1997, dated 2005)

How the values were obtained:
human plasma clots [1] = molecular target: T1, human plasma clots (Homo sapiens, UniProt P00488); assay: Incorporation into human plasma clots (in vitro plasma clot assay); type: biochemical; conditions: for % specific uptake*: % retained with thrombin − % retained no thrombin; for % retained in plasma clot assay (with thrombin): human plasma with thrombin and calcium chloride, 60 minutes, ca. 20° C.
T1 construct: Factor XIII is transformed into its active form Factor XIIIa by thrombin in the presence of calcium ions; from tissue; host or cells: human plasma, clotted in vitro with thrombin and calcium chloride
T1 sequence (P00488 39-732): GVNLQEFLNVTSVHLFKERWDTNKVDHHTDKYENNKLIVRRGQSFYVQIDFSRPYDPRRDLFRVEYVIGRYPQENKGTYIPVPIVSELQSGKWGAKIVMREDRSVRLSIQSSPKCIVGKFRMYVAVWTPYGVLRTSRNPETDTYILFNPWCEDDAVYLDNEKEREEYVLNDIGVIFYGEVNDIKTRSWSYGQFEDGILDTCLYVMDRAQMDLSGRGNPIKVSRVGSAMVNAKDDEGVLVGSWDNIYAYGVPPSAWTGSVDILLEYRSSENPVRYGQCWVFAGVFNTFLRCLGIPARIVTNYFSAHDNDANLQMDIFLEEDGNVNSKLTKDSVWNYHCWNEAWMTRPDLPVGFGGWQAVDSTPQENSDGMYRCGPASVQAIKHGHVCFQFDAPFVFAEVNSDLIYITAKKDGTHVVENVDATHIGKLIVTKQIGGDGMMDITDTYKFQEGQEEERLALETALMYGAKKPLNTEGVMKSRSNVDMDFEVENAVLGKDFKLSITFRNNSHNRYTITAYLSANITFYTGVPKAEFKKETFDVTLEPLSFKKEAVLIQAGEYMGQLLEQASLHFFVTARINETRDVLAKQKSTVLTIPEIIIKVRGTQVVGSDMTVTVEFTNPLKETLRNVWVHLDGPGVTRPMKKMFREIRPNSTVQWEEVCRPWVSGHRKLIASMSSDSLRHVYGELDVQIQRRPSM
Procedure: (§1) Incorporation of radiolabelled substrates into fibrin was investigated by induction of an in vitro human plasma clot in the following manner. To a siliconised 5 ml glass vial was added, (a) 800 μl of Tris(hydroxymethyl)aminomethane buffered saline pH 7.5 containing calcium chloride (50 mM Tris, 150 mM sodium chloride, 4 mM calcium chloride.), (b) 40 μl of physiological salt solution containing 100 units of thrombin per ml, (c) 400 μl of human plasma containing the radiolabelled substrate at a concentration of typically 10 kBq/ml. To aid induction of clot a roughened glass rod was added to the reaction vial. Control vials were prepared similarly but with the omission of thrombin and calcium chloride.
(§2) The proportion of total radioactivity was calculated by counting in suitable detection apparatus.
(§3) The fraction of radioactivity retained on the filter, after subtraction of the non-specific binding determined from the control, is a measure of incorporation into the filtered clots.

human plasma clots [2] = assay: as above; type: biochemical; conditions: control vials without thrombin and calcium chloride, 60 minutes
Procedure: as §1, §2, §3

Factor XIIIa = molecular target: T2, Factor XIIIa (Homo sapiens, UniProt P00488); assay: Factor XIIIa dependency of incorporation (dimethylcasein uptake, normal vs Factor XIII deficient plasma); type: biochemical; conditions: 1 KBq/ml, 60 minutes; uptake in normal plasma minus Factor XIII deficient plasma
T2 construct: Factor XIII is transformed into its active form Factor XIIIa by thrombin in the presence of calcium ions; from tissue; host or cells: human plasma
T2 sequence (P00488 39-732 limits assumed): T1 sequence (P00488 39-732)
Procedure: The assay was changed by replacing the mercaptoethanol with aprotinin at a final concentration of 2 μg/ml, and dimethylcasein (DMC) was used instead of casein.

[3] = Normal rat biodistribution; type: in vivo; conditions: i.v., male Wistar rats, Mean±SD n=3
Procedure: The resolution of a clot image is dependant on the combination of rate of incorporation of the radiopharmaceutical and its blood/tissues clearance rate. For this reason the biodistribution of several compounds has been determined in rats. Male Wistar (100-150 g) rats were injected i.v. with 0.1-0.2 ml of radiolabelled tracer solution (8 MBq/ml) and dissected at different times post-injection. The % ID in each of the selected tissues was measured. Some animals were kept in metabolism cages to be able to determine the % ID excreted in urine and faeces. The dissection times used for the majority of the agents was 2, 15, 30, 60, 240 min. Data are shown as % ID, Mean±SD, (n=3).

[4] = system: clots induced in rat inferior vena cava; assay: Incorporation into clots induced in a rat model (rat inferior vena cava model); type: in vivo; conditions: rat IVC model; for Clot/Blood / Clot/Heart / Clot/Liver / Clot/Lung: 60 min; for % ID/g (clot uptake) / Relative conc (cpm/g of clot by dose/g animal): compound injected 5 min post-induction, clot removed after 60 min
Procedure: The rats (Male Wistar, 250-350 g) were anaesthetised with 15% urethane. After laparotomy, the vena cava was isolated and freed of surrounding fat tissue. […] The average weight of the clots formed in this model was around 27 mg, n=32, (5-50 mg range). The so compounds were injected 5 min post-induction. After 60 min the animals were sacrificed and the clot removed, weighed and counted. Other tissues e.g. blood, lung, heart, were also dissected and counted. The uptake of tracer into the clot was determined as the relative concentration (cpm/g of clot by dose/g animal ) and clot to background tissue.

Structure (SMILES): CC(=NO)C(C)(C)NCC(C)(CNC(=O)C1CCC(CNC(=O)c2ccc(S(=O)(=O)NCCCCCN)cc2)CC1)CNC(C)(C)C(C)=NO (stereo not shown) [Compound 8, 3,3,6,9,9-pentamethyl-6-N[4-N-{(4-N-(5-aminopentyl)amidosulphonyl)benzoyl}aminomethylcyclohexylcarbonyl]aminomethyl-4,8-diazaundecane-2,10-dione dioxime]
- % specific uptake* (human plasma clots [1]): 18.4%
- % retained in plasma clot assay (with thrombin) (human plasma clots [1]): 23%
- % retained in plasma clot assay (no thrombin) (human plasma clots [2]): 4.6%
- % specific DMC casein uptake (Factor XIIIa): 45%
- % ID Blood ([3]; 2 min post-injection): 22.59 ± 1.44 % ID
- % ID GI Tract ([3]; 2 min post-injection): 9.75 ± 1.2 % ID
- % ID Heart ([3]; 2 min post-injection): 0.63 ± 0.17 % ID
- % ID Kidney ([3]; 2 min post-injection): 4.56 ± 0.29 % ID
- % ID Liver ([3]; 2 min post-injection): 19.6 ± 2.16 % ID
- % ID Lung ([3]; 2 min post-injection): 1.61 ± 0.06 % ID
- % ID Muscle ([3]; 2 min post-injection): 21.6 ± 2.08 % ID
- % ID Urine ([3]; 2 min post-injection): 0.13 ± 0.06 % ID
- % ID Blood ([3]; 15 min post-injection): 1.22 ± 0.06 % ID
- % ID GI Tract ([3]; 15 min post-injection): 70.9 ± 1.3 % ID
- % ID Heart ([3]; 15 min post-injection): 0.06 ± 0.04 % ID
- % ID Kidney ([3]; 15 min post-injection): 1.9 ± 0.95 % ID
- % ID Liver ([3]; 15 min post-injection): 10.0 ± 0.86 % ID
- % ID Lung ([3]; 15 min post-injection): 0.21 ± 0.03 % ID
- % ID Muscle ([3]; 15 min post-injection): 3.97 ± 0.56 % ID
- % ID Urine ([3]; 15 min post-injection): 6.23 ± 1.23 % ID
- % ID Blood ([3]; 30 min post-injection): 0.55 ± 0.19 % ID
- % ID GI Tract ([3]; 30 min post-injection): 80.7 ± 2.4 % ID
- % ID Kidney ([3]; 30 min post-injection): 1.8 ± 0.42 % ID
- % ID Liver ([3]; 30 min post-injection): 4.53 ± 0.5 % ID
- % ID Lung ([3]; 30 min post-injection): 0.1 ± 0.04 % ID
- % ID Muscle ([3]; 30 min post-injection): 1.6 ± 0.82 % ID
- % ID Urine ([3]; 30 min post-injection): 7.18 ± 1.24 % ID
- % ID Blood ([3]; 60 min post-injection): 0.39 ± 0.05 % ID
- % ID GI Tract ([3]; 60 min post-injection): 85.4 ± 0.12 % ID
- % ID Heart ([3]; 60 min post-injection): 0.03 ± 0.01 % ID
- % ID Kidney ([3]; 60 min post-injection): 1.06 ± 0.22 % ID
- % ID Liver ([3]; 60 min post-injection): 2.63 ± 0.38 % ID
- % ID Lung ([3]; 60 min post-injection): 0.08 ± 0.01 % ID
- % ID Muscle ([3]; 60 min post-injection): 1.22 ± 0.28 % ID
- % ID Urine ([3]; 60 min post-injection): 7.71 ± 0.49 % ID
- % ID Blood ([3]; 240 min post-injection): 0.1 ± 0.02 % ID
- % ID GI Tract ([3]; 240 min post-injection): 87.5 ± 2.8 % ID
- % ID Heart ([3]; 240 min post-injection): 0.01 ± 0.02 % ID
- % ID Kidney ([3]; 240 min post-injection): 0.85 ± 0.08 % ID
- % ID Liver ([3]; 240 min post-injection): 1.39 ± 0.29 % ID
- % ID Lung ([3]; 240 min post-injection): 0.05 ± 0.02 % ID
- % ID Muscle ([3]; 240 min post-injection): 0.22 ± 0.31 % ID
- % ID Urine ([3]; 240 min post-injection): 8.55 ± 2.76 % ID
- Clot/Blood [4]: 4.1
- Clot/Heart [4]: 8.1
- Clot/Liver [4]: 0.40
- Clot/Lung [4]: 4.4
- % ID/g (clot uptake) [4]: 0.17 ± 0.09 % ID/g
- Relative conc (cpm/g of clot by dose/g animal) [4]: 0.59 ± 0.31

Structure (SMILES): CC(=NO)C(C)(C)NCCN(CCNC(=O)c1ccc(S(=O)(=O)NCCCCCN)cc1)CCNC(C)(C)C(C)=NO [Compound 16, 3,3,11,11-tetramethyl-7-(4-N-(5-aminopentyl)-amidosulphonyl)benzamidoethyl-4,7,10-triazatridecane-2,12-dione dioxime]
- % specific uptake* (human plasma clots [1]): 1.2%
- % retained in plasma clot assay (with thrombin) (human plasma clots [1]): 2%
- % retained in plasma clot assay (no thrombin) (human plasma clots [2]): 0.8%
- % specific DMC casein uptake (Factor XIIIa): 1%
- % ID Blood ([3]; 2 min post-injection): 17.8 ± 1.78 % ID
- % ID GI Tract ([3]; 2 min post-injection): 6.61 ± 0.43 % ID
- % ID Heart ([3]; 2 min post-injection): 0.44 ± 0.09 % ID
- % ID Kidney ([3]; 2 min post-injection): 10.55 ± 1.1 % ID
- % ID Liver ([3]; 2 min post-injection): 5.61 ± 0.23 % ID
- % ID Lung ([3]; 2 min post-injection): 1.53 ± 0.12 % ID
- % ID Muscle ([3]; 2 min post-injection): 32.9 ± 0.97 % ID
- % ID Urine ([3]; 2 min post-injection): 1.74 ± 1.05 % ID
- % ID Blood ([3]; 30 min post-injection): 2.20 ± 0.5 % ID
- % ID GI Tract ([3]; 30 min post-injection): 27.3 ± 3.45 % ID
- % ID Heart ([3]; 30 min post-injection): 0.06 ± 0.01 % ID
- % ID Kidney ([3]; 30 min post-injection): 3.47 ± 0.71 % ID
- % ID Liver ([3]; 30 min post-injection): 5.15 ± 0.75 % ID
- % ID Lung ([3]; 30 min post-injection): 0.31 ± 0.08 % ID
- % ID Muscle ([3]; 30 min post-injection): 4.63 ± 0.25 % ID
- % ID Urine ([3]; 30 min post-injection): 48.0 ± 2.22 % ID
- % ID Blood ([3]; 60 min post-injection): 0.38 ± 0.14 % ID
- % ID GI Tract ([3]; 60 min post-injection): 31.6 ± 6.4 % ID
- % ID Heart ([3]; 60 min post-injection): 0.01 ± 0.01 % ID
- % ID Kidney ([3]; 60 min post-injection): 1.80 ± 0.65 % ID
- % ID Liver ([3]; 60 min post-injection): 3.07 ± 0.47 % ID
- % ID Lung ([3]; 60 min post-injection): 0.09 ± 0.03 % ID
- % ID Muscle ([3]; 60 min post-injection): 1.51 ± 0.53 % ID
- % ID Urine ([3]; 60 min post-injection): 58.2 ± 8.87 % ID
- % ID Blood ([3]; 240 min post-injection): 0.04 ± 0.04 % ID
- % ID GI Tract ([3]; 240 min post-injection): 36.5 ± 1.5 % ID
- % ID Heart ([3]; 240 min post-injection): 0.00 % ID
- % ID Kidney ([3]; 240 min post-injection): 1.06 ± 0.06 % ID
- % ID Liver ([3]; 240 min post-injection): 2.01 ± 0.11 % ID
- % ID Lung ([3]; 240 min post-injection): 0.04 ± 0.00 % ID
- % ID Muscle ([3]; 240 min post-injection): 0.55 ± 0.08 % ID
- % ID Urine ([3]; 240 min post-injection): 58.9 ± 1.66 % ID
- Clot/Blood [4]: 1.7
- Clot/Heart [4]: 3.8
- Clot/Liver [4]: 0.37
- Clot/Lung [4]: 2.1
- % ID/g (clot uptake) [4]: 0.27 ± 0.06 % ID/g
- Relative conc (cpm/g of clot by dose/g animal) [4]: 0.93 ± 0.16
